# Results taken from patent US8183230B2, “Antimicrobial preservatives to achieve multi-dose formulation using beta-cyclodextrins for liquid dosage forms” (priority 2004, dated 2012).
# Entries after “also recorded” stand apart in the source; their conditions may differ. Read-outs that look alike come from different tables or passages of the source.
# What was measured:
# [1] = tested on: Escherichia coli, Pseudomonas aeruginosa, Staphylococcus aureus, Candida albicans, Aspergillus niger; experiment: Hybrid USP/Ph. Eur. antimicrobial effectiveness test (AET); type: cell-based; conditions: for USP/Ph. Eur. requirements (initial results of preliminary screen): multidose compound of Formula Ia formulation with SBE-CD; for Ph. Eur. criteria B: leads of Study B; for AET Results Ph. Eur. Criteria A: Study A, compound of Formula Ia at 10 mgA/mL, cells without ✓ print organism (time point)
# Method: Preparation of Preserved Formulations. […] Antimicrobial preservatives with optimal activity at a pH outside the nominal formulation value (pH 4.4) were titrated to either 3.5 or 5.0 using 1 N HCl or 1 N NaOH. A stock solution of either 10% or 5% (weight/volume) SBE-CD containing 10 mgA/mL of the compound of Formula Ia citrate was prepared. Preservative was added to the respective formulation on a weight basis.
# Antimicrobial Efficacy Testing. A hybrid USP […]/Ph. Eur. 2000 antimicrobial effectiveness test (AET) was performed, as follows: 20 mL of drug product was individually inoculated with 0.1-0.2 mL of bacterial or fungal culture, per USP/Ph. Eur. compendial requirements. The final concentration of organisms in the test sample was between 1×10^5 and 1×10^6 cfu/mL. At initial 6 hr, 24 hr, 7 day, 14 day, and 28 day time intervals, 1 mL of the inoculated product was transferred into 9 mL of a recovery diluent, that was validated to confirm neutralization of the antimicrobial preservative. One mL of the diluted sample was then transferred to a sterile petri dish and combined with 15-20 mL of an agar broth to culture the organisms. Plates were then incubated for 3 to 5 days, upon which colonies were counted. Initial organism contamination was then calculated based on dilution of the initial sample.
# Generally, the USP test requirements are less stringent than Ph. Eur. requirements, which typically have an immediate bacteriocidal activity requirement. The Ph. Eur. requirements shown in Table III have either a “Criteria A” or “Criteria B” specification depending on the rate of microorganism reduction, with criteria A requiring an increased bacteriocidal rate. In order to meet the combined hybrid assay, the initial inoculum count of microorganisms needed to be reduced by the amounts listed in Table V.
# [2] = tested on: Escherichia coli, Pseudomonas aeruginosa, Staphylococcus aureus, Candida albicans, Aspergillus niger; conditions: as indicated by literature; cited from earlier work
# [3] = Stability measurements (accelerated stability); conditions: for ACCEPTABLE STABILITY: 10 mgA/mL compound of Formula Ia
# Method: Stability Measurements. Potential lead formulations were evaluated under various accelerated stability conditions in order to assess potency and purity of compound of Formula Ia, preservative content and SBE-CD content. For example, in one accelerated stability study, potential lead formulations were placed in stability ovens to measure short-term thermal stability. […] Purity and potency assays to measure compound of Formula Ia, as well as antimicrobial preservatives and SBE-CD content, were performed using validated HPLC methodology. SBE-CD was assayed using GTP 5984.
# [4] = for IST: Study A, compound of Formula Ia at 10 mgA/mL
# Method: Injection site toleration was measured by inspecting the patient for signs of reaction, including erythema (size); skin thickening (size), pain on palpation and edema. Table VI provides a detailed explanation of the scoring system: a score of 0 (no reaction) to 4 (severe reaction) was given for each characteristic and each injection site daily.
# Compound of Formula Ia formulations were evaluated for injection site toleration (hereinafter “IST”).
# Formulations were tested in groups of 4 dogs comprised of beagles and mongrels. […] Dogs were observed daily for evidence of reaction at the injection site and a score of 0-4 (see Table VI) was given for each of the following parameters: pain on injection, erythema, tissue thickening, pain on palpation and edema. Dogs were observed daily until day 5 (24 hours after the last dose).
# [5] = pH: 4.4, SBE-CD: 10%, content: ethanol 15%, meta-cresol 0.3%, propylene glycol 50%, thimerosal 0.01
# [6] = preserved compound of Formula Ia/SBE-CD formulations
# [7] = compound of Formula Ia formulations solubilised with cyclodextrin
# [8] = pH: 4.2, SBE-CD: 10%, preservative content 0.2%
# [9] = pH: 4.4, SBE-CD: 5%, ethanol 15%
molecule,measurement,setting,value
CC(O)CO (stereo not shown) [Propylene glycol],activity against the fungi,[1],ineffective against the fungi
same,USP/Ph. Eur. requirements (initial results of preliminary screen),[1],satisfied USP/Ph. Eur. requirements
same,activity against bacteria,[1]; with and without SBE-CD,active against bacteria only in the presence of SBE-CD
same,USP and Ph. Eur. criteria A or B requirements,[2],met both the USP and either Ph. Eur. criteria A or B requirements
C[CH2][Hg][S]c1ccccc1C(=O)[O-].[Na+] [Thimerosal],stability in the formulation (in words),[3],commercially undesirable
same,Stability,"[3]; Study A, pH: 4.4, SBE-CD: 10%, thimerosal 0.01, compound of Formula Ia at 10 mgA/mL",1 wk/70
same,preservative remained in the formulation,[3]; after 1 week at 70° C. storage,30%
same,loss of preservative,"[3]; after 6 weeks, 70° C. storage",complete loss
same,IST,[4]; [5],Good
same,injection site toleration,[4]; [6],good injection site toleration
same,Ph. Eur. criteria B,[1],met criteria B
same,USP/Ph. Eur. requirements (initial results of preliminary screen),[1],satisfied USP/Ph. Eur. requirements
same,USP and Ph. Eur. criteria A or B requirements,[2],met both the USP and either Ph. Eur. criteria A or B requirements
2-hydroxypropyl-β-cyclodextrin,injection site toleration,[4]; [7],acceptable injection site toleration
"O=C(O)c1ccccc1 [Benzoic acid, Benzoic Acid]",loss of preservative,[3]; over 12 weeks at 70° C. storage,no detectable loss
same,ACCEPTABLE STABILITY,"[3]; pH 4.2, 10% SBE-CD",✓
same,IST,[4]; [8],Poor
same,pain on injection,[4]; preserved compound of Formula Ia formulation,moderate to severe pain on injection
same,injection site toleration,[4]; [6],poor IST results
same,AET Results Ph. Eur. Criteria A,[1]; [8],"c. alb (7 d); also recorded: s. aur (6, 24 hr)"
same,reducing the microorganisms,[1]; after 7 days,ineffective
same,Ph. Eur. criteria B,[1],met criteria B
same,USP and Ph. Eur. criteria A or B requirements,[2],met both the USP and either Ph. Eur. criteria A or B requirements
CCO [Ethanol],ACCEPTABLE STABILITY,"[3]; pH 4.4, 5% SBE-CD",✓
same,IST,[4]; [9],Poor
same,IST,[4]; [5],Poor
same,AET Results Ph. Eur. Criteria A,[1]; [9],a. niger (7 d)
same,AET Results Ph. Eur. Criteria A,[1]; [5],s. aur (6 hr)
same,USP/Ph. Eur. requirements (initial results of preliminary screen),[1],satisfied USP/Ph. Eur. requirements
same,USP and Ph. Eur. criteria A or B requirements,[2],met both the USP and either Ph. Eur. criteria A or B requirements
Sulfobutylether-βcyclodextrin [SBE-CD],injection site toleration,[4]; [7],acceptable injection site toleration
